Assay [1] concerns the target T1, SARS-CoV-2 PLpro (Severe acute respiratory syndrome coronavirus 2, UniProt P0DTD1). Put plainly: biochemical. In kind it is biochemical.
Assay [2] addresses T1, SARS-CoV-2 PLpro. Put plainly: Pro-ISG15 cleavage assay. The assay is classed as biochemical. The settings on record: for inhibition at 20 µM / inhibition at 10 µM: read-out: Inhibition rate of PLpro-mediated deISGylation; for Inhibition rate of PLpro-mediated deISGylation: 20 μM compound, 50 nM PLpro, 350 nM pro-ISG15, 10 min, 37 °C.
Setting [3] is: IC50 (50% inhibition of PLpro anti-proteolytic activity), 50 nM PLpro, 50 μM Z-RLRGG-AMC, 10 mM DTT, pH 8.0, 37 °C, mean ± SD.

Like-named read-outs stand apart in the source and are kept apart here.

A word on the IC50: it is the point on the concentration scale where inhibition reaches its midpoint. In general, Ki refers to the equilibrium dissociation constant of an inhibitor or competing ligand from its target. A higher Ki goes with a looser hold on the target. As a reminder, the inhibition is the change of the read-out against control, counted positive when it falls.

Compound `COc1ccc(-c2cc(=O)c3c(O)cc(O)cc3o2)cc1` [Acacetin, acacetin, reference compound] yielded a half-maximal inhibitory concentration (IC50) against SARS-CoV-2 PLpro [1] (setting [3]) of 91.2 ± 11.3 µM.

As to `O=c1cc(-c2ccc(O)cc2)oc2cc(O)cc(O)c12` [Apigenin, apigenin, reference compound], the IC50 at SARS-CoV-2 PLpro [1] (setting [3]) was 75.7 ± 6.4 µM.

In turn, `O=c1cc(-c2ccc(O)c(-c3c(O)cc(O)c4c(=O)cc(-c5ccc(O)cc5)oc34)c2)oc2cc(O)cc(O)c12` [Compound 1, amentoflavone] came in with an inhibition constant (Ki) at SARS-CoV-2 PLpro [1] of 9.1 ± 0.7 µM. Moreover, the IC50 against SARS-CoV-2 PLpro [1] (setting [3]) amounted to 13 ± 1.2 µM. In addition, the inhibition at 20 µM at SARS-CoV-2 PLpro [2] stood at 48.1%.

On to `COc1ccc(-c2cc(=O)c3c(O)cc(O)c(-c4cc(-c5cc(=O)c6c(O)cc(O)cc6o5)ccc4O)c3o2)cc1` [Compound 2, podocarpusflavone A], for which affinity on SARS-CoV-2 PLpro [1] was put at a Ki of 36.5 ± 4.2 µM. This compound also displayed an IC50 at SARS-CoV-2 PLpro [1] (setting [3]) of 43.2 ± 2.9 µM. Moreover, at SARS-CoV-2 PLpro [2], the inhibition at 10 µM was in the range of 53.2 to 71.1% and the inhibition at 20 µM was in the range of 64.9 to 74.8%.

`COc1cc(O)c2c(=O)cc(-c3ccc(OC)c(-c4c(O)cc(O)c5c(=O)cc(-c6ccc(O)cc6)oc45)c3)oc2c1` [Compound 3, ginkgetin] came in with a Ki at SARS-CoV-2 PLpro [1] of 17.7 ± 1.1 µM. Also, the IC50 on SARS-CoV-2 PLpro [1] (setting [3]) stood at 29.8 ± 1.5 µM. In addition, on SARS-CoV-2 PLpro [2], the “Inhibition rate of PLpro-mediated deISGylation” value (“Inhibition rate” for short) is reported as “near complete inhibition” and the inhibition at 10 µM lay within 53.2 to 71.1%.

With `COc1ccc(-c2cc(=O)c3c(O)cc(O)c(-c4cc(-c5cc(=O)c6c(O)cc(O)cc6o5)ccc4OC)c3o2)cc1` [Compound 4, isoginkgetin], affinity on SARS-CoV-2 PLpro [1] was put at a Ki of 26.5 ± 2.8 µM. The IC50 at SARS-CoV-2 PLpro [1] (setting [3]) was 31.2 ± 3.4 µM. Also, on SARS-CoV-2 PLpro [2], the “Inhibition rate” value was “near complete inhibition” and the inhibition at 10 µM lay in the range of 53.2 to 71.1%.

Consider `O=C1c2c(O)cc(O)cc2O[C@H](c2ccc(O)cc2)[C@H]1c1c(O)cc(O)c2c(=O)cc(-c3ccc(O)c(O)c3)oc12` [Compound 6, morelloflavone], for which, on SARS-CoV-2 PLpro [1], the “Inhibition mode (Dixon plot)” value is reported as “non-competitive inhibition” and the Ki turned out to be 30.7 ± 2.9 µM. The IC50 against SARS-CoV-2 PLpro [1] (setting [3]) came to 36.4 ± 4.8 µM. At SARS-CoV-2 PLpro [2], the inhibition at 20 µM fell in the range of 32.3 to 34.1%.

In turn, `O=c1cc(-c2ccc(Oc3c(O)cc4oc(-c5ccc(O)cc5)cc(=O)c4c3O)cc2)oc2cc(O)cc(O)c12` [Compound 7, hinokiflavone] came in with an inhibition constant Ki at SARS-CoV-2 PLpro [1] of 7.8 ± 0.5 µM. Moreover, the IC50 against SARS-CoV-2 PLpro [1] (setting [3]) is 9.5 ± 1.2 µM. Also, the “Fold more potent anti-proteolytic activity than di-methylated counterpart 8” value on SARS-CoV-2 PLpro [1] (ratio of IC50 values, 7 vs 8) is listed as 2.8 fold. Moreover, at SARS-CoV-2 PLpro [2], the “Inhibition rate” value is “near complete inhibition” and the inhibition at 10 µM lay in the range of 65.6 to 98%.

As for `CC(C)=CCc1cc2c(cc1O)oc(=O)c1c3ccc(O)cc3oc21` [Psoralidin, reference compound], the IC50 on SARS-CoV-2 PLpro [1] (read-out: IC50 (50% inhibition of PLpro anti-proteolytic activity), pH 8) was 27.8 ± 2.2 µM.
